Target: Mitogen-activated protein kinase kinase kinase 14 (Homo sapiens, UniProt Q99558)
Assay: Inhibition of auto-phosphorylation of recombinant human NF-kappaB-inducing kinase (NIK/MAP3K14) activity
Description: NIK/MAP3K14 auto-phosphorylation activity was measured using the AlphaScreen (ascreen) format (Perkin Elmer). All compound6 tested were dissolved in dimethyl sulfoxide (DMSO) and further dilutions were made in assay buffer. The final DMSO concentration was 0.7% (v/v) in assays. The assay buffer was 50 mM Tris pH 7.5 containing 1 mM EGTA (ethylene glycol tetraacetic acid), 1 mM DTT (dithiothreitol), 0.1 mM NasVCO4, 5 mM MgCE, and 0.01 % Tween 20. The assays were carried out in 384 well Proxiplates (Perkin Elmer). The incubations consisted of the compound, […] Adenosine-5'-triphosphate (ATP), and 1 nM NIK/MAP3K14. Incubations were initiated by the addition of GST-tagged NIK/MAP3K14 enzyme, carried out for 2 h at 25 °C and terminated by addition of stop buffer containing anti-phospho-IKK Ser176/180 antibody. Protein A Acceptor and Glutathione-Donor bead6 were added before reading using an EnVision Multilabel Plate Reader (Perkin Elmer). The signal obtained in the wells was normalized using high (full enzyme activity, 0.7% DMSO) and low controls (no enzyme activity, 0.7% DMSO, no ATP). IC50 s were determined by fitting a sigmoidal curve to % inhibition of control versus Log compound concentration.

Mitogen-activated protein kinase kinase kinase 14, sequence (Q99558 whole entry): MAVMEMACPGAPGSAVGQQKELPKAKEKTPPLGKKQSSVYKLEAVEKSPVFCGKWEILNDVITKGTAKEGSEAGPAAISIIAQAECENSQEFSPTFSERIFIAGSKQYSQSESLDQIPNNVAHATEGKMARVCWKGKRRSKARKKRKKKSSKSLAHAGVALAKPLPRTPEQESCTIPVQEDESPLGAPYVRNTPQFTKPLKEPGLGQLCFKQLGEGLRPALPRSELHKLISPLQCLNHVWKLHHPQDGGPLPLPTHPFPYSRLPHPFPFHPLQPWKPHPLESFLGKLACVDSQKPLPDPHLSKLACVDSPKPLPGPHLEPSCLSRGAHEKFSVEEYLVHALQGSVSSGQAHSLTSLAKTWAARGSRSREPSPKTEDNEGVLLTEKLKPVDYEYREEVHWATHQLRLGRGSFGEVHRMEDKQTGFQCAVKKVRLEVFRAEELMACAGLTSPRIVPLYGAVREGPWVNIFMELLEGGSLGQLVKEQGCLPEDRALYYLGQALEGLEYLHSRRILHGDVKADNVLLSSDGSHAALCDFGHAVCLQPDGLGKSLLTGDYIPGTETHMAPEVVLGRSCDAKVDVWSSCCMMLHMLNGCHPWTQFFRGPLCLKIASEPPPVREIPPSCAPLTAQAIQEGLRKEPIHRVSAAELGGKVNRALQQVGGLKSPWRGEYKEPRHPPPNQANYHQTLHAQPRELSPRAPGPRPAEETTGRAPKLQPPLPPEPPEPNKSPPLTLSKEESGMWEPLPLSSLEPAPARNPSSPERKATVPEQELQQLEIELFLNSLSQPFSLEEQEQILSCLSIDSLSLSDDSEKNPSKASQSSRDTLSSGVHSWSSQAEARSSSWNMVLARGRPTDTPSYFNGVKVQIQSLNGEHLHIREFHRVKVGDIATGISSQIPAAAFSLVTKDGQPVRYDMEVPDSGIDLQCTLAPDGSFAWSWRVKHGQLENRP

Q: Which IC50 does the source give for `CN1C(=O)[C@](O)(c2cccc(-c3csc(-c4c[nH]c5ncccc45)n3)c2)c2ncccc21` [WO2022104348, Example 92] here?
A: The IC50 was less than 100 nM.

Q: For `CN1CC[C@@](O)(c2cccc(-c3coc(-c4c[nH]c5ncccc45)c3)c2)C1=O` [WO2022104348, Example 93], which IC50 is on record?
A: Its IC50 is less than 100 nM.

Q: For `CN1CC[C@@](O)(c2cccc(-c3csc(-c4c[nH]c5ncc(F)c(F)c45)n3)c2)C1=O` [WO2022104348, Example 94], which IC50 is on record?
A: The IC50 was less than 100 nM.

Q: With `CN1CC[C@@](O)(c2cccc(-c3csc(-c4c[nH]c5ncc(Cl)c(F)c45)n3)c2)C1=O` [WO2022104348, Example 95] as the compound, how does the IC50 read?
A: The IC50 was less than 100 nM.

Q: `O[C@@]1(c2cccc(-c3csc(-c4c[nH]c5ncc(F)c(F)c45)n3)c2)CCn2ccnc21` [WO2022104348, Example 96] was tested. Which IC50 did it give?
A: Its IC50 is less than 100 nM.

Q: Which IC50 does the source give for `O[C@@]1(c2cccc(-c3csc(-c4c[nH]c5ncc(Cl)c(F)c45)n3)c2)CCn2ccnc21` [WO2022104348, Example 97] here?
A: Its IC50 is less than 100 nM.

Q: For `CN1CC[C@@](O)(c2cccc(-c3nc(-c4c[nH]c5ncccc45)sc3C#N)c2)C1=O` [WO2022104348, Example 98], which IC50 is on record?
A: Its IC50 is greater than 500 nM.

Q: `CN1CC[C@@](O)(c2cccc(-c3nc(-c4c[nH]c5ncccc45)sc3F)c2)C1=O` [WO2022104348, Example 99] was tested. Which IC50 did it give?
A: Its IC50 is less than 100 nM.

Q: Which IC50 does the source give for `CN1CC[C@@](O)(c2cccc(-c3csc(-c4n[nH]c5ncccc45)n3)c2)C1=O` [WO2022104348, Example 100] here?
A: Its IC50 is greater than 500 nM.

Q: For `O[C@H]1C[C@](O)(c2cccc(-c3csc(-c4c[nH]c5ncccc45)n3)c2)c2ncccc21` [WO2022104348, Example 102], which IC50 is on record?
A: Its IC50 is greater than 500 nM.

Q: For `O[C@H]1C[C@@](O)(c2cccc(-c3csc(-c4c[nH]c5ncccc45)n3)c2)c2ncccc21` [WO2022104348, Example 103], which IC50 is on record?
A: The IC50 was greater than 500 nM.

Q: How did the IC50 turn out when `O[C@@H]1C[C@](O)(c2cccc(-c3csc(-c4c[nH]c5ncccc45)n3)c2)c2ncccc21` [WO2022104348, Example 104] was run?
A: Its IC50 is greater than 500 nM.

Q: How did the IC50 turn out when `C[C@]1(O)C[C@](O)(c2cccc(-c3csc(-c4c[nH]c5ncccc45)n3)c2)c2ncccc21` [WO2022104348, Example 105] was run?
A: The IC50 was greater than 500 nM.

Q: How did the IC50 turn out when `C[C@@]1(O)C[C@@](O)(c2cccc(-c3csc(-c4c[nH]c5ncccc45)n3)c2)c2ncccc21` [WO2022104348, Example 106] was run?
A: The IC50 was greater than 500 nM.

Q: `C[C@@]1(O)C[C@](O)(c2cccc(-c3csc(-c4c[nH]c5ncccc45)n3)c2)c2ncccc21` [WO2022104348, Example 107] was tested. Which IC50 did it give?
A: Its IC50 is greater than 500 nM.

Q: For `CN1CC[C@@](O)(c2cccc(-n3ncc(-c4c[nH]c5ncccc45)n3)c2)C1=O` [WO2022104348, Example 109], which IC50 is on record?
A: Its IC50 is less than 100 nM.

Q: How did the IC50 turn out when `CN1CC[C@@](O)(c2cccc(-c3csc(-n4ccc5nc(N)ccc54)n3)c2)C1=O` [WO2022104348, Example 112] was run?
A: Its IC50 is greater than 500 nM.

Q: `CN1CC[C@@](O)(c2cccc(-c3ccc(-c4c[nH]c5ncccc45)o3)c2)C1=O` [WO2022104348, Example 114] was tested. Which IC50 did it give?
A: The IC50 was less than 100 nM.

Q: `CN1CC[C@@](O)(c2cccc(-c3cc(-c4c[nH]c5ncccc45)co3)c2)C1=O` [WO2022104348, Example 115] was tested. Which IC50 did it give?
A: Its IC50 is greater than 500 nM.

Q: Which IC50 does the source give for `CN1CC[C@@](O)(c2cccc(-c3coc(-c4c[nH]c5ncccc45)n3)c2)C1=O` [WO2022104348, Example 116] here?
A: Its IC50 is less than 100 nM.

Q: Which IC50 does the source give for `Cc1c(-c2c[nH]c3ncccc23)n[nH]c1-c1cccc([C@]2(O)CCN(C)C2=O)c1` [WO2022104348, Example 119] here?
A: The IC50 was greater than 500 nM.

Q: Which IC50 does the source give for `CN1CC[C@@](O)(c2cccc(-c3cnc(-c4c[nH]c5ncccc45)n3C)c2)C1=O` [WO2022104348, Example 120] here?
A: The IC50 was greater than 500 nM.

Q: With `CN1CC[C@@](O)(c2cccc(-n3cnc(-c4c[nH]c5ncccc45)n3)c2)C1=O` [WO2022104348, Example 121] as the compound, how does the IC50 read?
A: The IC50 was less than 100 nM.

Q: With `CN1CC[C@@](O)(c2cccc(-n3ccc(-c4c[nH]c5ncccc45)n3)c2)C1=O` [WO2022104348, Example 122] as the compound, how does the IC50 read?
A: The IC50 was less than 100 nM.

Q: How did the IC50 turn out when `CN1CC[C@@](O)(c2cccc(-n3cc(-c4c[nH]c5ncccc45)nn3)c2)C1=O` [WO2022104348, Example 123] was run?
A: The IC50 was greater than 500 nM.

Q: For `CN1CC[C@@](O)(c2cccc(-n3cnc(-c4c[nH]c5ncccc45)c3)c2)C1=O` [WO2022104348, Example 124], which IC50 is on record?
A: The IC50 was greater than 500 nM.

Q: How did the IC50 turn out when `Cc1noc2c1CC[C@@]2(O)c1cccc(-c2csc(-c3c[nH]c4ncccc34)n2)c1` [WO2022104348, Example 126] was run?
A: The IC50 was less than 100 nM.

Q: `CN1CC[C@@](O)(c2cccc(-c3nc(-c4ccnc5[nH]ccc45)cs3)c2)C1=O` [WO2022104348, Example 127] was tested. Which IC50 did it give?
A: Its IC50 is less than 100 nM.

Q: How did the IC50 turn out when `CN1CC[C@@](O)(c2cccc(-c3nc(-c4cc(N)nc5[nH]ccc45)cs3)c2)C1=O` [WO2022104348, Example 129] was run?
A: Its IC50 is greater than 500 nM.

Q: Which IC50 does the source give for `CN1CC[C@@](O)(c2cccc(-c3nc(-c4c(Cl)cnc5[nH]ccc45)cs3)c2)C1=O` [WO2022104348, Example 130] here?
A: The IC50 was greater than 500 nM.

Q: `CN1CC[C@@](O)(c2cccc(-c3nc(-c4cccc5[nH]ncc45)cs3)c2)C1=O` [WO2022104348, Example 131] was tested. Which IC50 did it give?
A: The IC50 was greater than 500 nM.

From BindingDB's records for patent WO2022104348 (Janssen Pharmaceutica, 2022)
